Results published in the supplement of paper PMC10307832.

Experiments:
Assay in all cases: relative viability (nuclei count vs DMSO), 5 days (fraction); higher = more cells survive
[1] = compound: NCC(=O)Nc1ccc(-n2nc(C(F)(F)F)cc2-c2ccc3c(ccc4ccccc43)c2)cc1 + COc1cccc2cc(-c3nc([C@H]4CC[C@H](C(=O)O)CC4)n4ncnc(N)c34)[nH]c12 [OSI-027] (partner 0.5 µM)
Procedure, shortened: (§1)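 Cells from lung cancer lines were seeded into 1536-well plates and, one day later, dosed by pin tool. Treatments were either a single drug or a fixed dose of an anchor drug with five library-drug doses (not always all listed) in √10 steps. After 5 days, nuclei were stained in a one-step fixation (final 0.05% Triton X-100, 1% formaldehyde, 1 ug/ml Hoechst) and counted on 4× images, and relative viability is the treated-to-vehicle nuclei ratio, as the median of duplicate plates.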

[2] = compound: NCC(=O)Nc1ccc(-n2nc(C(F)(F)F)cc2-c2ccc3c(ccc4ccccc43)c2)cc1 + CC(=O)Nc1cccc(-n2c(=O)n(C3CC3)c(=O)c3c(Nc4ccc(I)cc4F)n(C)c(=O)c(C)c32)c1 [Trametinib] (partner 0.02 µM)
Procedure, shortened: as §1

[3] = compound: C1CSC2=C(C(=O)N1)SC3=C2C=C(C=C3)O [kb NB 142-70] + Nc1ncn([C@H]2C[C@H](O)[C@@H](CO)O2)c(=O)n1 [Decitabine] (partner 2 µM)
Procedure, shortened: as §1

[4] = compound: C1CSC2=C(C(=O)N1)SC3=C2C=C(C=C3)O [kb NB 142-70] + N=C(N)NC(=N)NCCc1ccccc1 [Phenformin] (partner 250 µM)
Procedure, shortened: as §1

Row | Cell Line | relative viability ([1]; first compound 0.02 µM) | relative viability ([1]; first compound 0.06325 µM) | relative viability ([1]; first compound 0.2 µM) | relative viability ([1]; first compound 0.6325 µM) | relative viability ([1]; first compound 2 µM) | relative viability ([2]; first compound 0.02 µM) | relative viability ([2]; first compound 0.06325 µM) | relative viability ([2]; first compound 0.2 µM) | relative viability ([2]; first compound 0.6325 µM) | relative viability ([2]; first compound 2 µM) | relative viability ([3]; first compound 0.1 µM) | relative viability ([3]; first compound 1 µM) | relative viability ([3]; first compound 3.162 µM) | relative viability ([4]; first compound 0.1 µM) | relative viability ([4]; first compound 1 µM) | relative viability ([4]; first compound 3.162 µM)
1 | NCI-H1648 | 0.248 | 0.262 | 0.257 | 0.227 | 0.273 | 0.414 | 0.533 | 0.573 | 0.563 | 0.506 | 0.452 | 0.435 | 0.493 |  |  | 
2 | SK-MES-1 | 0.677 | 0.575 | 0.622 | 0.616 | 0.646 | 0.56 | 0.555 | 0.612 | 0.511 | 0.593 | 0.466 | 0.338 | 0.22 | 0.754 | 0.658 | 0.407
3 | HCC-366 | 0.829 | 1.08 | 1.09 | 0.848 | 0.816 | 0.361 | 0.408 | 0.467 | 0.354 | 0.271 | 0.366 | 0.407 | 0.415 | 0.637 | 0.588 | 0.604
4 | 201T | 0.806 | 0.769 | 0.724 | 0.649 | 0.606 | 0.692 | 0.717 | 0.747 | 0.725 | 0.696 | 0.892 | 0.867 | 0.825 | 0.453 | 0.418 | 0.492
5 | HCC-827 | 0.771 | 0.756 | 0.751 | 0.745 | 0.734 | 0.572 | 0.584 | 0.58 | 0.553 | 0.521 | 0.31 | 0.288 | 0.274 | 0.415 | 0.387 | 0.339
6 | NCI-H647 | 0.494 | 0.681 | 0.67 | 0.573 | 0.773 | 0.535 | 0.512 | 0.591 | 0.434 | 0.49 | 0.383 | 0.477 | 0.36 | 0.502 | 0.54 | 0.44
7 | NCI-H2023 | 0.381 | 0.422 | 0.428 | 0.422 | 0.351 | 0.552 | 0.709 | 0.702 | 0.513 | 0.358 | 0.218 | 0.213 | 0.149 | 0.382 | 0.44 | 0.391
8 | NCI-H520 | 0.238 | 0.265 | 0.296 | 0.243 | 0.234 | 0.637 | 0.641 | 0.747 | 0.678 | 0.679 | 0.506 | 0.43 | 0.357 | 0.57 | 0.515 | 0.324
9 | RERF-LC-KJ | 0.542 | 0.608 | 0.515 | 0.644 | 0.583 | 0.89 | 0.839 | 0.847 | 0.843 | 0.848 | 0.681 | 0.664 | 0.482 | 0.409 | 0.463 | 0.445
10 | A-427 |  | 0.454 | 0.438 | 0.496 | 0.457 | 0.722 | 0.787 | 0.866 | 0.721 | 0.783 | 0.579 | 0.568 | 0.55 | 0.466 | 0.37 | 0.248
11 | NCI-H441 | 0.647 | 0.675 | 0.613 | 0.551 | 0.631 | 0.394 | 0.436 | 0.507 | 0.523 | 0.555 | 0.259 | 0.213 | 0.162 | 0.881 | 0.894 | 0.633
12 | NCI-H1792 | 0.657 |  | 0.824 | 0.722 | 0.803 | 0.486 | 0.425 | 0.471 | 0.406 | 0.436 | 0.536 | 0.536 | 0.458 |  | 0.297 | 0.392
13 | SK-LU-1 | 0.343 | 0.358 | 0.441 | 0.313 | 0.374 | 0.43 | 0.519 | 0.537 | 0.521 | 0.576 | 0.589 | 0.505 | 0.417 | 0.546 | 0.451 | 0.265
14 | PC-3 [JPC-3] | 0.802 | 0.761 | 0.777 | 0.715 | 0.872 | 0.701 | 0.776 | 0.715 | 0.71 | 0.775 | 0.831 | 0.833 | 0.871 | 0.475 | 0.472 | 0.474
15 | EMC-BAC-2 | 0.292 | 0.367 | 0.371 | 0.361 | 0.387 | 0.824 | 0.909 | 0.877 | 0.96 | 0.887 | 1.06 | 0.994 | 1.1 | 0.524 | 0.501 | 0.38
16 | ABC-1 | 0.558 | 0.409 |  | 0.471 | 0.542 |  |  |  |  |  | 1.05 | 0.69 | 0.776 | 0.223 | 0.24 | 0.166
17 | NCI-H2228 | 0.672 | 0.535 | 0.904 | 0.644 | 0.584 | 0.559 | 0.593 | 0.548 | 0.572 | 0.553 |  |  |  | 0.263 | 0.317 | 0.178
18 | NCI-H1563 | 0.785 | 0.786 | 0.761 | 0.771 | 0.719 |  |  |  |  |  |  |  |  | 0.656 | 0.688 | 0.624
19 | A549 |  |  |  |  |  |  |  |  |  |  | 0.24 | 0.245 | 0.233 | 0.129 | 0.193 | 0.166
20 | NCI-H1623 | 0.439 | 0.475 | 0.395 | 0.494 | 0.432 |  |  |  |  |  |  |  |  | 0.599 | 0.617 | 0.591
21 | CAL-12T | 0.619 | 0.651 | 0.644 | 0.604 | 0.621 | 0.304 | 0.401 | 0.394 | 0.339 | 0.362 |  |  |  | 0.565 | 0.601 | 0.485
